One assay relates to C. albicans biofilms. The assay is described as follows: in vitro biofilm disruption assay, fungal. In kind it is cell-based, Candida albicans. The note with it: 1% amino acid, p<0.001. On the procedure:
Two types of biofilm assays were performed: a sustained inhibition assay and a disruption assay.
(§1) For fungal biofilm assays, all solutions were prepared in RPMI 1640 medium. All bacterial biofilm solutions were prepared in Tryptic Soy Broth (TSB), supplemented with 1% glucose (henceforth referred to as TSB-G). All subsequent procedures were performed in a manner that maintained sterility. A solution of each amino acid to be tested was prepared in weight to volume concentrations ranging from 0.1-5.0%. Amino acids were also tested in combinations. Compound solutions were homogenized with gentle agitation in the dark (4° C., 24 hours) before use.
Fungal strains were streaked on Yeast Peptone Dextrose (YPD) agar plates and incubated at 30° C. for 48 hours. A single colony from each strain to be tested was inoculated into YPD broth and grown for 12 hours, at 30° C., shaking at 225 rpm. For the fungal biofilm inhibition assay, 1 μl of saturated overnight cell culture was added to either 80 μL of RPMI-1640 or RPMI-1640 supplemented with the amino acid compound solution to be tested, in a 384-well plate. […] Media was carefully aspirated and the biofilm was measured by optical density at 600 nm. Twelve replicates were performed for each tested condition and the reported values are normalized to the control (RPMI-1640 media only). For the fungal biofilm disruption assays, 80 μL of RPMI-1640 was added to the plate, along with 1 μL of overnight cell culture. […] Loosely bound cells were washed once with PBS and 80 μL of RPMI-1640 was added to the plate. […] Media was carefully aspirated from the mature biofilm and 80 μL of RPMI-1640, or RPMI-1640 supplemented with the amino acid compound solution to be tested, was gently added to the plate. […] Media was carefully aspirated and the biofilm was measured by optical density at 600 nm. Twelve replicates were performed for each tested condition and the reported values are normalized to the control (RPMI-1640 media only).
The cells were allowed to adhere to the plate for 90 minutes at 37° C. with shaking (350 rpm). […] The plate was further incubated for 24 hours at 37° C. with shaking (350 rpm). […] The plate was further incubated for 24 hours at 37° C. with shaking (350 rpm). Media was carefully aspirated and the biofilm was measured by optical density at 600 nm.

Assay [1] concerns bacteria (S. aureus) biofilm and fungal (C. albicans) biofilm. Nature of the assay: sustained inhibition biofilm assay, bacterial and fungal taken together. In kind it is cell-based, Staphylococcus aureus; Candida albicans. The conditions noted are these: 1% amino acid. The method, then: (§2) Other amino acids in the blood of animals could combat bacterial and fungal biofilm and therefore may be useful in treating these bacterial and fungal infections that would lie on the external surfaces of infected animals such as humans and could also be used to combat these pathogens on instruments and surfaces that need to be treated. Two types of biofilm assays were performed: a sustained inhibition assay and a disruption assay. The sustained inhibition assay assessed the compound's ability to prevent biofilm development throughout all stages of biofilm formation, while the disruption assay assessed the compound's ability to break up an existing mature biofilm.
as §1
(§3) Fungal strains were streaked on Yeast Peptone Dextrose (YPD) agar plates and incubated at 30° C. for 48 hours. A single colony from each strain to be tested was inoculated into YPD broth and grown for 12 hours, at 30° C., shaking at 225 rpm. For the fungal biofilm inhibition assay, 1 μl of saturated overnight cell culture was added to either 80 μL of RPMI-1640 or RPMI-1640 supplemented with the amino acid compound solution to be tested, in a 384-well plate. […] Media was carefully aspirated and the biofilm was measured by optical density at 600 nm. […] Media was carefully aspirated and the biofilm was measured by optical density at 600 nm. […]
(§4) Bacterial strains were streaked on Blood Agar plates (5% sheep blood in Tryptic Soy Agar) and incubated at 37° C. for 24 hours. […] Media was carefully aspirated and the biofilm was measured by optical density at 600 nm. […]

Assay [2] shares this test system. The assay is described as follows: disruption biofilm assay, bacterial and fungal taken together. In kind it is cell-based, Staphylococcus aureus; Candida albicans. The method, then: as §2, §1, §3, §4
[3] abbreviates: disruption, bacterial and fungal biofilm, 1% amino acid.

The structures appear in SMILES notation.

The text below walks through data of patent US12226386B2, “Compositions and methods for treating biofilms” (The Regents of the University of California, priority 2018, dated 2025).

As to `N[C@@H](CS)C(=O)O` [Cysteine, L-cysteine], the “Reduce F Biofilm” value with C. albicans biofilms is “●● (two dots [i.e. ●●] signifies major effect (greater than about 30% change))”. The “Reduce Both” value in assay [1] and in assay [2] (setting [3]) was “●● (two dots [i.e. ●●] signifies major effect (greater than about 30% change))” in each case.

Take `N[C@@H](CCC(=O)O)C(=O)O` [Glutamic Acid, L-glutamic acid]: the “Reduce F Biofilm” value in the assay with C. albicans biofilms was “●● (two dots [i.e. ●●] signifies major effect (greater than about 30% change))”. Besides, the “Reduce Both” value in assay [1] is “●● (two dots [i.e. ●●] signifies major effect (greater than about 30% change))”; in assay [2], “● (a single dot [i.e. ●] signifies minor effect (from about 10 to about 30% change))”.

On to `N[C@@H](CC(=O)O)C(=O)O` [Aspartic Acid, L-aspartic acid], for which the “Reduce F Biofilm” value in the assay on C. albicans biofilms is “●● (two dots [i.e. ●●] signifies major effect (greater than about 30% change))”. The “Reduce Both” value in assay [1] and in assay [2] (setting [3]) was “●● (two dots [i.e. ●●] signifies major effect (greater than about 30% change))” in each case.
